This is an account of results in patent US8536193B2, “Inhibitors of AKT activity” (Merck Sharp & Dohme Corp., priority 2008, dated 2013).

For one assay, the target named is Akt1 kinase (Homo sapiens (Human), UniProt P31749). Kind of assay: Akt kinase assay (HTRF, GSK-derived biotinylated peptide substrate). The assay is classed as biochemical. The method, then:
(§1) Activated Akt isoforms and pleckstrin homology domain deletion constructs were assayed utilizing a GSK-derived biotinylated peptide substrate. The extent of peptide phosphorylation was determined by Homogeneous Time Resolved Fluorescence (HTRF) using a lanthanide chelate (Lance)-coupled monoclonal antibody specific for the phosphopeptide in combination with a streptavidin-linked allophycocyanin (SA-APC) fluorophore which will bind to the biotin moiety on the peptide. When the Lance and APC are in proximity (i.e. bound to the same phosphopeptide molecule), a non-radiative energy transfer takes place from the Lance to the APC, followed by emission of light from APC at 665 nm.
(§2) Materials Required for the Assay:
(§3) A. Activated Akt isozyme or pleckstrin homology domain deleted construct
(§4) B. Akt peptide substrate: GSK3α (S21) Peptide #3928 biotin-[…] (SEQ.ID.NO.:15), Macromolecular Resources.
(§5) C. Lance labeled anti-phospho GSK3α monoclonal antibody (Cell Signaling Technology, clone #27).
(§6) D. SA-APC (Prozyme catalog no. PJ25S lot #896067).
(§7) E. Microfluor®B U Bottom Microtiter Plates (Dynex Technologies, Catalog no. 7205).
(§8) F. Discovery® HTRF Microplate Analyzer, Packard Instrument Company.
(§9) G. 100× Protease Inhibitor Cocktail (PIC): 1 mg/mL benzamidine, 0.5 mg/mL pepstatin, 0.5 mg/mL leupeptin, 0.5 mg/mL aprotinin.
(§10) H. 10× Assay Buffer: 500 mM HEPES, pH 7.5, 1% PEG, […], 1 mM EGTA, 1% BSA, 20 mM θ-Glycerol phosphate.
(§11) I. Quench Buffer: 50 mM HEPES pH 7.3, 16.6 mM EDTA, 0.1% BSA, 0.1% Triton X-100, 0.17 nM Lance labeled monoclonal antibody clone #27, 0.0067 mg/mL SA-APC
(§12) J. ATP/MgCl2 working solution: 1× Assay buffer, 1 mM DTT, 1×PIC, 125 mM KCl, 5% Glycerol, 25 mM MgCl2, 375 μM ATP
(§13) K. Enzyme working solution: 1× Assay buffer, 1 mM DTT, 1× PIC, 5% Glycerol, active Akt. The final enzyme concentrations were selected so that the assay was in a linear response range.
(§14) L. Peptide working solution: 1× Assay buffer, 1 mM DTT, 1× PIC, 5% Glycerol, 2 μM GSK3 biotinylated peptide #3928
(§15) The reaction is assembled by adding 16 μl, of the ATP/MgCl2 working solution to the appropriate wells of a 96-well microtiter plate. Inhibitor or vehicle (1.0 μL) is added followed by 10 μL of peptide working solution. The reaction is started by adding 13 μL of the enzyme working solution and mixing. The reaction is allowed to proceed for 50 min and then stopped by the addition of 60 μl, HTRF quench buffer. The stopped reactions were incubated at room temperature for at least 30 min and then read on the Discovery instrument.
For orientation: TR-FRET usually uses a lanthanide donor and a delayed reading to cut background.

The target in another assay is Akt2 kinase (Homo sapiens (Human), UniProt P31751). The description is as above. It is filed as biochemical. The method, then:
as §1, §2, §3, §4, §5, §6, §7, §8, §9, §10, §11, §12, §13, §14, §15

What is called IC50 is the concentration that gives 50% inhibition.

Sequence of Akt1 kinase (P31749 whole entry, the tested form may be a part, canonical isoform): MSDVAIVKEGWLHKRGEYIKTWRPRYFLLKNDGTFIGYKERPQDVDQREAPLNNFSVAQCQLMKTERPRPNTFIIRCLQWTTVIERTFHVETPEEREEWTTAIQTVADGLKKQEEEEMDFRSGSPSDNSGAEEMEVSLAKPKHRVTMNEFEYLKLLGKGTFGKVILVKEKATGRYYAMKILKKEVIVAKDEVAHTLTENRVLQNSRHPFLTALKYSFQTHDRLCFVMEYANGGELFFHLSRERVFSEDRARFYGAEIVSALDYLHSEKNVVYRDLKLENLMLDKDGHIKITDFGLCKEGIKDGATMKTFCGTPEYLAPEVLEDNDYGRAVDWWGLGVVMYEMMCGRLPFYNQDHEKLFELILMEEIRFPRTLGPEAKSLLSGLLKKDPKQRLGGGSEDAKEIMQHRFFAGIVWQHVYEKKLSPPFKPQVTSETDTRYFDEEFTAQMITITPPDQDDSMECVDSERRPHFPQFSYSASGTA
Sequence of Akt2 kinase (P31751 whole entry): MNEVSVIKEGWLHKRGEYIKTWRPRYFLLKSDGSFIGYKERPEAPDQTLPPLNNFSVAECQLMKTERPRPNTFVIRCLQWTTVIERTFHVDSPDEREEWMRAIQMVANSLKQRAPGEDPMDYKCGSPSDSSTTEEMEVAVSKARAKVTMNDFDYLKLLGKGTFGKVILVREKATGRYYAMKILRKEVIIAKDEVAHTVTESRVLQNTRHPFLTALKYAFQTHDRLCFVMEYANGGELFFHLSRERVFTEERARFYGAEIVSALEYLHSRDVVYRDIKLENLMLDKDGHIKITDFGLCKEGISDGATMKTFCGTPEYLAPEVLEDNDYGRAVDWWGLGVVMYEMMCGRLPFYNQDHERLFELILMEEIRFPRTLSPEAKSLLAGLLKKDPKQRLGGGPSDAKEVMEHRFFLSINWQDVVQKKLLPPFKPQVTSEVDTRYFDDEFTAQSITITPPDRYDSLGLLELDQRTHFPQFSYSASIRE

Turning to `NC1(c2ccc(-c3nc4ccc5nnc(C(F)F)n5c4cc3-c3ccccc3)cc2)CC(O)(C2CC2)C1` (stereo not drawn) [EXAMPLE 10-5, trans-3-amino-1-cyclopropyl-3-{4-[1-(difluoromethyl)-8-phenyl-[1,2,4]triazolo[4,3-a]-1,5-naphthyridin-7-yl]phenyl}cyclobutanol], the IC50 at Akt1 kinase worked out at 0.34 nM; on Akt2 kinase, 2.2 nM.

As to `C[C@]1(O)C[C@@](N)(c2ccc(-c3nc4ccc5nnc(C(F)F)n5c4cc3-c3ccccc3)cc2)C1` [EXAMPLE 10-4, trans-3-amino-3-{4-[1-(difluoromethyl)-8-phenyl[1,2,4]triazolo[4,3-a]-1,5-naphthyridin-7-yl]phenyl}-1-methylcyclobutanol], the IC50 came to 0.38 nM at Akt1 kinase and 1.7 nM at Akt2 kinase.

Consider `Nc1nnc2ccc3nc(-c4ccc(C5(N)CCC5)cc4)c(-c4ccccc4)cc3n12` [EXAMPLE 3-1, 7-[4-(1-aminocyclobutyl)phenyl]-8-phenyl[1,2,4]triazolo[4,3-a]-1,5-naphthylidin-1-amine], for which the IC50 was determined as 6.1 nM at Akt1 kinase and 24 nM on Akt2 kinase.

As for `Cc1nnc2ccc3nc(-c4ccc(C5(N)CCC5)cc4)c(-c4ccccc4)cc3n12` [EXAMPLE 4-1, 1-[4-(1-methyl-8-phenyl[1,2,4]triazolo[4,3-a]-1,5-naphthylidin-7-yl)phenyl]cyclobutanamine], the IC50 is 8.2 nM at Akt1 kinase and 50 nM at Akt2 kinase.

Turning to `CC1(O)CC(N)(c2ccc(-c3nc4ccc5nnc(-c6nnc[nH]6)n5c4cc3-c3ccccc3)cc2)C1` (stereo not drawn) [EXAMPLE 7-26, cis-3-amino-1-methyl-3-{4-[8-phenyl-1-(4H-1,2,4-triazol-3-yl)[1,2,4]triazolo[4,3-a][1,5]naphthyridin-7-yl]phenyl}cyclobutanol], the IC50 came out at 0.7 nM at Akt1 kinase and 12.6 nM on Akt2 kinase.

Regarding `NC1(c2ccc(-c3nc4ccc5nnc(-c6ccccc6)n5c4cc3-c3ccccc3)cc2)CC(F)(F)C1` [EXAMPLE 5-12, 1-[4-(1,8-diphenyl[1,2,4]triazolo[4,3-a]-1,5-naphthyridin-7-yl)phenyl]-3,3-difluorocyclobutanamine], the results for the IC50 at Akt1 kinase and at Akt2 kinase were 10 nM and 140 nM, respectively.

Take `NC1(c2ccc(-c3nc4ccc5nnc(-c6ccccc6)n5c4cc3-c3ccccc3)cc2)CCC1` [EXAMPLE 2-1, 1-[4-(1,8-diphenyl[1,2,4]triazolo[4,3-a]-1,5-naphthylidin-7-yl)phenyl]cyclobutanamine]: the figures for the IC50 at Akt1 kinase and at Akt2 kinase were 2.3 nM and 32 nM, respectively.

Consider `O=C(Cc1cccnc1)NC1(c2ccc(-c3nc4ccc5nnc(O)n5c4cc3-c3ccccc3)cc2)CCC1` [EXAMPLE 1-9, N-{1-[4-(1-hydroxy-8-phenyl[1,2,4]triazolo[4,3-a]-1,5-naphthylidin-7-yl)phenyl]cyclobutyl}-2-(3-pyridinyl)acetamide], for which the IC50 on Akt1 kinase came out at 39 nM; on Akt2 kinase, 200 nM.
